Entries after “also recorded” stand apart in the source; their conditions may differ.
Columns and labels:
[1] = test system: H295R cells; experiment: Visualization of cholesterol levels by filipin III binding; format: cell-based; details: for cholesterol level / accumulation (filipin III binding), compound alone: serum-containing medium
Procedure: (§1) The cells were seeded in 96-well ibiTreat μ-Plates and allowed to adhere for 48 h prior to the start of each experiment. Cholesterol was detected in fixed cells by incubating with 100 μg/ml filipin III at 37 C for 2 h. […] Images were captured using either a 4× or a 60× objective. Cholesterol esterification was visualized by culturing the cells with 1 μM NBD-cholesterol for 2 h following incubation with the indicated compounds. […] Images were captured using either a 20× or a 60× objective.
(§2) The medium was removed and immediately replaced with 100 μl of 4% paraformaldehyde and the cells were fixed at room temperature for 20 min. The cells were washed twice with 200 μl PBS. […] The fixed cells were incubated with filipin III at 37 C in the dark for 2 h.

[2] = test system: H295R cells; experiment: Caspase 3/7 activity (Apo-ONE); format: cell-based; details: for caspase 3/7 activity, compound alone: serum-containing medium
Procedure: (§3) The samples were incubated for 18 h at room temperature in the dark. The fluorescence was measured using a SpectraMax M5 microplate reader with a 0.5 s acquisition time.

[3] = test system: H295R cells; experiment: Visualization of NBD-cholesterol esterification; format: cell-based
Procedure: (§4) The cells were seeded in 96-well ibiTreat μ-Plates and allowed to adhere for 48 h prior to the start of each experiment. Cholesterol was detected in fixed cells by incubating with 100 μg/ml filipin III at 37 C for 2 h. The bound filipin III was imaged by fluorescence microscopy using 377/11 nm excitation and 447/60 nm emission wavelengths. Images were captured using either a 4× or a 60× objective. Cholesterol esterification was visualized by culturing the cells with 1 μM NBD-cholesterol for 2 h following incubation with the indicated compounds. NBD-cholesterol esters were imaged by fluorescence microscopy using 485/20 nm excitation wavelengths. Images were captured using either a 20× or a 60× objective.
(§5) The cells were seeded in 96-well ibiTreat μ-Plates (Ibidi) in 100 μl at a density of 50,000 cells per well. […] 5 μl of NBD-cholesterol was added to each well to produce a final concentration of 1 μM. When NBD-cholesterol is esterified and localized to cytoplasmic lipid droplets, it produces bright fluorescent foci in the cell. The inhibition of ACAT activity prevents fluorescent focus formation by NBD-cholesterol (see, e.g., Lada, et al., 2004 J Lipid Res, 45, 378-86). After 1.5 h, 5 μl of Hoechst 33342 was added to each well to produce a final concentration of 3 μg/ml. After 30 min, the medium was replaced with fresh medium. NBD-cholesterol esterification was visualized by fluorescence microscopy using either 485/20 nm (NBD) or 387/11 nm (Hoechst) excitation wavelengths and images were captured using either a 60× oil objective or a 20× objective.

[4] = test system: H295R cells; experiment: Cortisol secretion (indirect ELISA); format: cell-based
Procedure: Cortisol secretion was measured by replacing the culture medium with fresh medium containing the indicated compounds. The medium was collected at the indicated times. The cortisol concentration in the medium was measured using indirect ELISA (Arbor Assays).
After 48 h, the medium was removed and replaced with 50 μl of fresh medium. After the indicated incubation time, aliquots of the supernatant ranging from 0.5 to 10 μl were diluted in 50 μl of medium were used to measure the amount of cortisol secreted. Cortisol detection and quantification were performed by indirect ELISA according to the manufacturer's protocol (Arbor Assays #K003).

[5] = test system: H295R cells; experiment: Cholesterol crystallization and extracellular cholesterol associated with cells; format: cell-based
Procedure: To quantify cholesterol crystallization, experiments were conducted that measured the total extracellular cholesterol that was associated with the cells. After culturing cells with the indicated compounds, the culture medium was removed. Medium lacking cholesterol was added to the cells, and the extracellular cholesterol that was released into the wash medium was collected after 30 seconds. To establish if the cholesterol that was released from the cells was exported by ABCA1, the wash step was performed in parallel using media with and without 50 μM glibenclamide, which inhibits ABCA1 activity. The total amount of cell-associated cholesterol that was released into the wash medium was measured using a fluorometric enzyme-linked assay (Cayman Chemical). Cholesterol esters were hydrolyzed using cholesterol esterase. Cholesterol was oxidized by cholesterol oxidase, producing hydrogen peroxide. The hydrogen peroxide was reacted with 10-acetyl-3,7-dihydroxyphenoxazine (ADHP) in the presence of horseradish peroxidase to produce resorufin. Resorufin fluorescence was measured using 555 nm exitation and 590 nm emission wavelengths in a SpectraMax M5 microplate reader (Molecular Devices).
The medium was removed and replaced with 50 μl serum-free medium supplemented with 5 μg/mL apo-AI (without or with 50 μM glyburide to detect ABCA1 transporter-dependent efflux) for either 30 sec or 1 h at 37 C in 5% CO2 atmosphere. After the indicated time, the supernatant, was transferred to a new 96-well plate and a fluorometric-base cholesterol detection assay cocktail was added.

[6] = test system: H295R cells; experiment: Cell morphology by phase contrast microscopy; format: cell-based; details: 30 h
Procedure: FIG. 4E: […] The cells were cultured with DMSO vehicle (upper images) or with 40 μM ATR-101 (lower images) alone (left images), or in combination with 1.5 mM MβCD (middle images), or in combination with 40 μM cholesterol (right images). Cell morphology was visualized by phase contrast microscopy using a 10× objective. The images are representative of 5 fields under each set of culture conditions. The scale bars denote 100 μm.

[7] = test system: H295R cells; experiment: Cellular ATP level (CellTiter-Glo); details: for ATP level, compound alone: H295R cells, serum-containing medium;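 for all read-outs here: ATP quantified by luminescence after lysing the cells in CellTiter-Glo reagent, with compound exposure at 37 °C under 5% CO2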
[8] = test system: BD140C cells; experiment: Visualization of cholesterol levels by filipin III binding; format: cell-based; details: 4 h
Procedure: as §1, §2

[9] = test system: BD140C cells; experiment: Cellular ATP level (CellTiter-Glo); format: cell-based
Procedure: The ATP levels of cells were measured by lysis in CellTiter-Glo reagent (Promega), and measurement of the luminescence.
After 48 h, 20-80 μl of medium was removed from each well and replaced with 20 μl of each compound diluted to 6× of the final concentration in the culture medium to produce a final volume of 120 μl. The cells were incubated at 37 C in 5% CO2 atmosphere for a time ranging from 15 min to 24 h. The medium was removed and immediately replaced with 50 μl of CellTiter-Glo luminescence cell viability assay reagent (Promega). The cells were lysed by agitation at room temperature for 20 min in the dark. The luminescence was measured using a SpectraMax M5 microplate reader (Molecular Devices) with a 0.5 s acquisition time. The luminescence (RLU) values for control cells ranged from 5000 to 20000 RLU in all experiments, and were scaled by a factor of 0.001 to plot all graphs.

[10] = test system: BD140C cells; experiment: Caspase 3/7 activity (Apo-ONE); format: cell-based
Procedure: as §3

[11] = test system: BD140C cells; experiment: Visualization of NBD-cholesterol esterification; format: cell-based; details: compound 2 h then 2 h with NBD-cholesterol
Procedure: as §4, §5

[12] = test system: H295R cells; experiment: Cholesterol efflux into serum-free medium with apoA1; format: cell-based; details: serum-free medium containing apoA-I, 4 h
Procedure: Cholesterol efflux was measured by replacing the culture medium with serum-free medium supplemented with 5 μg/ml apoA1 (Sigma) and the indicated compounds. After the indicated time, the serum-free medium was collected, and the cholesterol concentration was measured using the fluorometric enzyme-linked assay (Cayman Chemical).
After 48 h, the medium was removed and replaced with 50 μl serum-free medium supplemented with 5 μg/mL apoA1. After the indicated time, the supernatant containing the effluxed cholesterol, was transferred to a new 96-well plate. A cholesterol detection reagent (Cayman Chemical) consisting of cholesterol assay buffer, cholesterol assay detector (10-acetyl-3,7-dihydroxyphenoxazine [ADHP]), horseradish peroxidase, cholesterol oxidase, and cholesterol esterase was added, and the reactions were incubated for 30 min at 37 C. The fluorescence intensities were measured using ex. […] 590 nm. The cholesterol concentrations were calculated by interpolation between the values produced by cholesterol standards that were analyzed in parallel.

[13] = test system: ABCA1; experiment: Transcript measurement by qPCR in H295R cells; format: cell-based; details: 4 h, hydrochloride
Procedure: (§6) mRNA was isolated (Qiagen), and was reverse transcribed using the Transcriptor First Strand cDNA synthesis kit (Roche). The relative amounts of cDNAs corresponding to the indicated transcripts were quantified using qPCR assays with specific primers (Table 2).
(§7) H295R cells were seeded in 6-well tissue culture plates (Corning #3506) at a density of 5 X105 per well. After 48 h, the compound(s) indicated were added, and the cells were cultured for the indicated time. The cells were harvested in 1.35 ml culture medium with trypsin. The cells were collected by centrifugation and lysed in 350 μl of RLT buffer (Qiagen) with β-mercaptoethanol. mRNA extraction and DNase treatment were performed according to the manufacturer's protocol (Qiagen). All RNA samples had 260/280 ratios greater than 1.5. The same amount of RNA ranging from 0.1 to 0.5 μg was used for reverse transcription using the Roche Transcriptor First Strand cDNA synthesis kit (Roche #04897030001) using the manufacturer's protocol. SYBR Green I-based real-time qPCR assays were performed using a Roche LightCycler480 instrument. The levels of transcripts in different samples were normalized by the levels of RPL9 transcripts.

[14] = test system: ABCG1; experiment: Transcript measurement by qPCR in H295R cells; format: cell-based; details: 4 h, hydrochloride
Procedure: as §6, §7

[15] = test system: CHOP; experiment: Transcript measurement by qPCR in H295R cells; format: cell-based; details: 4 h
Procedure: as §6, §7

[16] = test system: ACAT; details: cited from earlier work
[17] = test system: adrenal cortex; details: in vivo; cited from earlier work
[18] = H295R cells cultured with the compound together with ATR-101, 4 h
[19] = H295R cells cultured with the compound together with ATR-101, 24 h
[20] = H295R cells, serum-free, 50 μM each glibenclamide, benzamil, zosuquidar, 10 μM PD129337, 4 mM MβCD

CC(C)CCC[C@@H](C)[C@H]1CC[C@H]2[C@@H]3CC=C4C[C@@H](O)CC[C@]4(C)[C@H]3CC[C@]12C [cholesterol]
effect on cholesterol accumulation caused by ATR-101 ([1]; H295R cells cultured with the compound together with ATR-101, 4 h or 24 h): lower cholesterol levels than cells that were cultured with ATR-101 alone; also recorded: prevented intracellular cholesterol accumulation; also recorded: did not have a higher level of filipin III binding to the plasma membrane
cholesterol level / accumulation (filipin III binding), compound alone ([1]; H295R cells, 24 h): no detectable effect
cholesterol level / accumulation (filipin III binding), compound alone ([1]; H295R cells, up to 4 h): no detectable effect
effect on caspase 3/7 activation by ATR-101 [2, 18]: did not affect caspase 3/7 activation
effect on caspase 3/7 activation by ATR-101 [2, 19]: reduced caspase activation
caspase 3/7 activity, compound alone ([2]; H295R cells, 4 h): no detectable effect
caspase 3/7 activity, compound alone ([2]; H295R cells, 24 h): no detectable effect
effect of exogenous cholesterol on NBD-cholesterol esterification and on its inhibition by ATR-101 ([3]; 40 μM exogenous cholesterol, 100 μM ATR-101): no significant difference
effect on the inhibition of cortisol secretion by ATR-101 ([4]; 40 μM of the compound together with ATR-101, 4 h): neither compound prevented the inhibition of cortisol secretion
total extracellular cholesterol associated with cells ([5]; 4 h, 100 μM ATR-101 or 40 μM cholesterol): increased the total extracellular cholesterol
effect on cholesterol crystallization in cells cultured with ATR-101 ([5]; compound in combination with ATR-101): produced more extracellular crystals; also recorded: increased the amount of extracellular cholesterol crystals
effect on the changes in cell morphology caused by ATR-101 ([6]; 40 μM ATR-101 with 1.5 mM MβCD or 40 μM cholesterol): remained flat and adherent for at least 30 h; also recorded: prevented
cell morphology, compound alone ([6]; phase contrast): no detectable effect
effect on ATP depletion by ATR-101 [7, 18]: partially restored the ATP level; also recorded: restored normal or nearly normal ATP levels; also recorded: reduced ATP depletion
effect on ATP depletion by ATR-101 [7, 19]: partially restored the ATP level; also recorded: inhibits ATP depletion by ATR-101
ATP level, compound alone ([7]; 4 h): no detectable effect
ATP level, compound alone ([7]; 24 h): no detectable effect

CC(C)c1cccc(C(C)C)c1NC(=O)NCC1(c2ccccc2)CCCC1.Cl [PD129337, N-(2,6-bis(1-methylethyl)phenyl)-N′-((1-(phenyl)cyclopentyl)methyl)urea hydrochloride]
cholesterol level / accumulation (filipin III binding), compound alone [8]: did not cause cholesterol accumulation
cholesterol level / accumulation (filipin III binding), compound alone ([1]; H295R cells, up to 4 h): did not cause cholesterol accumulation
cholesterol level with combinations of ABC transporter inhibitors [1, 20]: further increased the cholesterol level
ATP level, compound alone ([9]; 4 h): did not cause ATP depletion
ATP level, compound alone ([9]; 24 h, hydrochloride): did not reduce the ATP level; also recorded: no detectable effect
caspase 3/7 activity, compound alone ([10]; 4 h): did not cause ATP depletion or caspase activation
caspase 3/7 activity, compound alone ([10]; 24 h, hydrochloride): did not reduce the ATP level or increase the caspase 3/7 activity; also recorded: no detectable effect
caspase 3/7 activity, compound alone ([2]; H295R cells, 4 h): did not cause ATP depletion or caspase activation
caspase 3/7 activity, compound alone ([2]; H295R cells, 24 h, hydrochloride): did not reduce the ATP level or increase the caspase 3/7 activity; also recorded: no detectable effect
caspase 3/7 activity with combinations of ABC transporter inhibitors [2, 20]: did not enhance ATP depletion or caspase 3/7 activation
NBD-cholesterol esterification and accumulation in lipid droplets [11]: inhibited NBD-cholesterol esterification
NBD-cholesterol esterification and accumulation in lipid droplets ([3]; compound 2 h then 2 h with NBD-cholesterol, hydrochloride): inhibited cholesterol esterification more efficiently than ATR-101; also recorded: inhibited NBD-cholesterol accumulation more effectively than ATR-101; also recorded: eliminated both the intense foci and the diffuse fluorescence
cholesterol efflux, compound alone [12]: no detectable effect on cholesterol efflux
cortisol secretion, compound alone ([4]; cortisol in medium, 4 h or time course): did not reduce, but rather increased, cortisol secretion
ABCA1 transcript level [13]: inhibited; also recorded: equivalent effects
ABCG1 transcript level [14]: inhibited; also recorded: equivalent effects
CHOP transcript level [15]: activated
ACAT activity [16]: inhibit ACAT activity
adrenalytic activity [17]: only ATR-101 has adrenalytic activity
ATP level, compound alone ([7]; 4 h): did not cause ATP depletion
ATP level, compound alone ([7]; 24 h, hydrochloride): did not reduce the ATP level; also recorded: no detectable effect

From patent US10512667B2, “Compositions and methods for treating conditions related to adrenocortical activity and/or excessive steroid production” (The Regents of the University of Michigan, priority 2017, dated 2019)
